Earlier results on one compound are cited in patent US9206100B2, “Route to synthetic analogues of Rocaglamide and Aglafoline using cascade transformations initiated by oxy-cope rearrangement of bis-alkynes” (The Florida State University Research Foundation, Inc., priority 2010, dated 2015).

In this data set the test system is various human leukemia cell lines. The conditions noted are these: through the intrinsic death pathway; human leukemia cell lines and ALL, CML and AML cells freshly isolated from patients.

On to `COc1ccc([C@@]23Oc4cc(OC)cc(OC)c4[C@]2(O)[C@H](O)[C@H](C(=O)N(C)C)[C@H]3c2ccccc2)cc1` [Rocaglamide], for which the apoptosis induction result was “induces apoptosis”.
